Measurements reported in BindingDB's records for patent US11192859 (2021).

What follows are molecules tested against Advanced glycosylation end product-specific receptor (Homo sapiens, UniProt Q15109) (assay: Inhibitory Activity Assay).
Experimental: Table 2-3: Step 1. Add 50 μl anti-DIAPH1 (1:160 dilution in 0.1M NaHCO3 pH 9.6)/well. Incubate overnight at 4° C. Day 2 Step 2. Use the plate washer to aspirate anti-DIAPH11 and wash plates 4× with PBS 100 μl per well per wash. Step 3. Add 180 μl 3% BSA in 1×PBS. Incubate for 1.5 hrs at room temperature Step 4. Use the plate washer to aspirate the blocking solution and wash 5× with PBS 300 μl per well. Step 5. Add 50 μl of DIAPH1 containing lysate (85 μg) and incubate at RT for 3 hours. Step 6. Aspirate the lysate and wash the plate 5×(100 μl) on the plate washer. Step 7. Add 25 μl PBS to the wells. Step 8. Add 0.5 μL compound per well. Step 9. Add 24.5 μL GFP RAGE tail (125 nM) into each well for 2 hrs at room temperature. Step 10. Aspirate and wash 5× with PBS (100 μL) on the plate washer. Step 11. Add 100 μl PBS in each well. Step 12. Detection: Read on fluorescence plate reader excitation 435 nm and 485 nm emission

Advanced glycosylation end product-specific receptor, sequence (Q15109 whole entry): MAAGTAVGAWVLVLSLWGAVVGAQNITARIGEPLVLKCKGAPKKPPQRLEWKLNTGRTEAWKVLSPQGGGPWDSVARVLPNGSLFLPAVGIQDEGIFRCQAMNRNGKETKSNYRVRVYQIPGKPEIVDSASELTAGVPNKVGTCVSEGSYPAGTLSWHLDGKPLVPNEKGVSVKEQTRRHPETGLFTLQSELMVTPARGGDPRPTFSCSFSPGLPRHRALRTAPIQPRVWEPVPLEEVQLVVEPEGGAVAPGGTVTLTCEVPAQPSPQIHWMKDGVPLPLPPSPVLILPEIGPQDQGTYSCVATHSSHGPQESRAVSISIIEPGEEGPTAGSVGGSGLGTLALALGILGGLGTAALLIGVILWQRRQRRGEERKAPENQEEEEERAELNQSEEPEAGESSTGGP

Kd	Structure (SMILES)
77 µM	CC(=O)Nc1ccc(-c2cc(C(=O)N3CCCC3)c3ccccc3n2)cc1 [US11192859, Compound 7]
99 µM	COCCNC(=O)c1cc(-c2ccc(NC(C)=O)cc2)nc2ccccc12 [US11192859, Compound 6]
41 µM	CC(=O)Nc1ccc(-c2cc(C(=O)N3CCOCC3)c3ccccc3n2)cc1 [US11192859, Compound 5]
56 µM	CC(=O)Nc1ccc(-c2cc(C(=O)NCCN(C)C)c3ccccc3n2)cc1 [US11192859, Compound 4]
